Biological target: full-length human GCN2 enzyme (Homo sapiens (Human), UniProt Q9P2K8)
Assay: GCN2 enzyme inhibition, LanthaScreen TR-FRET Kinase Activity assay
Assay type: biochemical
Conditions: 10 μM ATP; mean of 1 to 3 replicate assays
Experimental: The inhibitory activity of the Example compounds towards GCN2 enzyme was measured according to the description below, using a LanthaScreen TR-FRET (Time Resolved Fluorescence Resonance Energy Transfer) Kinase Activity assay distributed by ThermoFisher Scientific.
The full-length human GCN2 enzyme (UniProt accession number Q9P2K8) was used for all experiments (Carna Bioscience). The TR-FRET pair was composed of GFP-elF2a and LanthaScreen Terbium-labeled anti-pelF2a (pSer52) Antibody.
Each example compound was dissolved in DMSO (0.15 mM) and dispensed in a 384-well plate by a D300 dispenser (Tecan) to a final concentration range 3000-0.13 nM using the logarithmic dilution mode in 2 replicates. Full inhibition (3000 nM commercial reference inhibitor) and DMSO vehicle control wells were also included on the same plate. All volumes were normalized to the final DMSO concentration of 2% of the reaction volume. Next, 5 μL of H2O was added to each well of the plate.
The enzyme mixture was prepared to obtain the following concentrations: • GCN2—30 nM • unloaded tRNA—0.3 nM • HEPES (pH=7.0)—100 mM • MgCl2—20 mM; MnCl2—10 mM
The mixture was applied by adding 5 μL to each well of the plate. The enzyme and the tested compound were then incubated at room temperature for 20 min while shaking at 450 rpm.
The substrate mixture was prepared to obtain the following concentrations: • GFP-elF2α—240 nM • ATP-30 PM • HEPES (pH=7.0)—50 mM • MgCl2—10 mM • MnCl2—5 mM.
The mixture was applied by adding 5 μL to each well of the plate. Thus, the final concentrations of the 15 μL reaction mixture were as follows: • GCN2—10 nM • unloaded tRNA—0.1 nM • GFP-elF2α—80 nM • ATP-10 μM • HEPES (1 M, pH=7.0)—50 mM • MgCl2—10 mM • MnCl2—5 mM.
The reaction was allowed to proceed at room temperature for 30 min while shaking at 450 rpm.
The antibody mixture was prepared to obtain the following concentrations: • Na2EDTA·2H2O—40 mM, in TR-FRET Dilution Buffer (Life technologies) • Tb-anti-pelF2a antibodies—4 nM.
The mixture was applied by adding 15 μL to each well. The plate was then incubated at room temperature for 60 min while shaking at 450 rpm and then read using Tecan Spark reader using specific TR-FRET filters.
The analysis of the GFP/Tb fluorescence results was conducted with GraphPad Prism to determine IC50 for each of the example compounds using 4-parameter model: log (inhibitor) vs. response-variable slope. IC50 and Ki values were calculated in the usual way. The assay was carried out between 1 and 3 times. The results in the table below are the mean results from replicate assays for the compound in question, where applicable.

Chain of full-length human GCN2 enzyme (Q9P2K8 whole entry): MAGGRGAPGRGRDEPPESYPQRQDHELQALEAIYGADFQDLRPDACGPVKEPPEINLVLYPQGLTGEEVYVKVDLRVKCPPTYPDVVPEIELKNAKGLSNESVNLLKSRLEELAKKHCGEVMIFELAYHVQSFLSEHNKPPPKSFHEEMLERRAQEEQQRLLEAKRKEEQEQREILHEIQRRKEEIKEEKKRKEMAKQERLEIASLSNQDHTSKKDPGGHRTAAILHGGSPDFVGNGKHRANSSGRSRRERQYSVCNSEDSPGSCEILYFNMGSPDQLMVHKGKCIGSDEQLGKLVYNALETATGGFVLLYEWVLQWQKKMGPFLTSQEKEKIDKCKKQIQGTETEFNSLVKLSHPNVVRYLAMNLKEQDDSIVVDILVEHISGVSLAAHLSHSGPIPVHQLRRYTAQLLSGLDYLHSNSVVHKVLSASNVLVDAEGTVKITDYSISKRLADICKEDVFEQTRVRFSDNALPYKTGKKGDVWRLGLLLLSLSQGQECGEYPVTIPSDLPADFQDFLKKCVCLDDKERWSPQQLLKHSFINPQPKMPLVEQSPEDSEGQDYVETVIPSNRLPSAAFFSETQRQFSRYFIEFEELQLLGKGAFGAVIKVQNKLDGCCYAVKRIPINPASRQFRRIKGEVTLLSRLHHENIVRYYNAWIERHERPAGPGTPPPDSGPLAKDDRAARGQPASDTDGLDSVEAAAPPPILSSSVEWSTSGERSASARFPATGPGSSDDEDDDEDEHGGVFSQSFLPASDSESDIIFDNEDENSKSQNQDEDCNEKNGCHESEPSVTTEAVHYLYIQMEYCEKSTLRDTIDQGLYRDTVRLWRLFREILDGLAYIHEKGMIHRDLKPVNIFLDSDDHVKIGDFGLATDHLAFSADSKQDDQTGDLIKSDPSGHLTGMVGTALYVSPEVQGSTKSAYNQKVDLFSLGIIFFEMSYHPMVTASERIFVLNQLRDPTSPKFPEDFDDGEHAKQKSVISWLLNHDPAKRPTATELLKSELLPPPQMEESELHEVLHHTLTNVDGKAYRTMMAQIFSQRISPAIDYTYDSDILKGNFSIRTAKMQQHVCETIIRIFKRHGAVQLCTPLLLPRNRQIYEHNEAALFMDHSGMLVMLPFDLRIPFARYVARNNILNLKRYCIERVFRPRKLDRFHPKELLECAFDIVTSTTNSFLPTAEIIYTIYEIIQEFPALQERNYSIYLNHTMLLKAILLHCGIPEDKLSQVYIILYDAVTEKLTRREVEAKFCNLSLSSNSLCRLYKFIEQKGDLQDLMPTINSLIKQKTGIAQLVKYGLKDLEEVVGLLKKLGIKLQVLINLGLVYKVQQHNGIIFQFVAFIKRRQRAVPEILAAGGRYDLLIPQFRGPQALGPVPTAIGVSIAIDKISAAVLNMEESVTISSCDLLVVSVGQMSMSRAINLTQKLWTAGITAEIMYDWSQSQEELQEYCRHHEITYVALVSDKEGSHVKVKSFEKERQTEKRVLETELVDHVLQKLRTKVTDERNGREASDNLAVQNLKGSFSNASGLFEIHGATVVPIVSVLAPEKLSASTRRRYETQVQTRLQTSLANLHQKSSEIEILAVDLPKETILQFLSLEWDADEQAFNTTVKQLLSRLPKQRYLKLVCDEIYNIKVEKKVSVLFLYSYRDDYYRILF

SMILES	Ki [nM]
Cc1ncc(F)cc1S(=O)(=O)Nc1nccc(C#Cc2cnc3[nH]ncc3c2)c1F [Example 16, 5-Fluoro-N-[3-fluoro-4-(2-{1H-pyrazolo[3,4-b]pyridin-5-yl}ethynyl)pyridin-2-yl]-2-methylpyridine-3-sulfonamide]	4.19
Cc1ncc(Cl)cc1S(=O)(=O)Nc1nccc(C#Cc2cnc3[nH]ncc3c2)c1F [Example 4, 5-Chloro-N-[3-fluoro-4-(2-{1H-pyrazolo[3,4-b]pyridin-5-yl}ethynyl)pyridin-2-yl]-2-methylpyridine-3-sulfonamide]	2.49
O=S(=O)(Nc1nccc(C#Cc2cnc3[nH]ncc3c2)c1F)c1cncc(Cl)c1 [Example 7, 5-Chloro-N-[3-fluoro-4-(2-{1H-pyrazolo[3,4-b]pyridin-5-yl}ethynyl)pyridin-2-yl]pyridine-3-sulfonamide]	127
COc1cccc(S(=O)(=O)Nc2nccc(C#Cc3cnc4[nH]ncc4c3)c2F)c1 [Example 3]	128
Cc1nc(C)c(S(=O)(=O)Nc2nccc(C#Cc3cnc4[nH]ncc4c3)c2F)s1 [Example 6, N-[3-Fluoro-4-(2-{1H-pyrazolo[3,4-b]pyridin-5-yl}ethynyl)pyridin-2-yl]-2,4-dimethyl-1,3-thiazole-5-sulfonamide]	29.3
COc1ncc(C(F)(F)F)cc1S(=O)(=O)Nc1nccc(C#Cc2cnc3[nH]ncc3c2)c1F [Example 5, N-[3-Fluoro-4-(2-{1H-pyrazolo[3,4-b]pyridin-5-yl}ethynyl)pyridin-2-yl]-2-methoxy-5-(trifluoromethyl)pyridine-3-sulfonamide]	5.78
Cc1ccc(S(=O)(=O)Nc2nccc(C#Cc3cnc4[nH]ncc4c3)c2F)c(C)n1 [Example 14, N-[3-Fluoro-4-(2-{1H-pyrazolo[3,4-b]pyridin-5-yl}ethynyl)pyridin-2-yl]-2,6-dimethylpyridine-3-sulfonamide]	17.8
N#Cc1cccc(S(=O)(=O)Nc2nccc(C#Cc3cnc4[nH]ncc4c3)c2F)c1 [Example 2, 3-Cyano-N-[3-fluoro-4-(2-{1H-pyrazolo[3,4-b]pyridin-5-yl}ethynyl)pyridin-2-yl]benzene-1-sulfonamide]	107
COc1ncccc1S(=O)(=O)Nc1nccc(C#Cc2cnc3[nH]ncc3c2)c1F [Example 8, N-[3-Fluoro-4-(2-{1H-pyrazolo[3,4-b]pyridin-5-yl}ethynyl)pyridin-2-yl]-2-methoxypyridine-3-sulfonamide]	59.9
CCOc1ncc(Cl)cc1S(=O)(=O)Nc1nccc(C#Cc2cnc3[nH]ncc3c2)c1F [Example 18, 5-Chloro-2-ethoxy-N-[3-fluoro-4-(2-{1H-pyrazolo[3,4-b]pyridin-5-yl}ethynyl)-pyridin-2-yl]pyridine-3-sulfonamide]	8.83
O=S(=O)(Nc1nccc(C#Cc2cnc3[nH]ncc3c2)c1F)c1ccc(Cl)cc1CO [Example 19]	65
O=S(=O)(Nc1nccc(C#Cc2cnc3[nH]ncc3c2)c1F)c1cc(Cl)cnc1CCO [Example 20, 5-chloro-N-[3-fluoro-4-(2-{1H-pyrazolo[3,4-b]pyridin-5-yl}ethynyl)pyridin-2-yl]-2-(2-hydroxyethyl)pyridine-3-sulfonamide]	67
COc1ncc(C#N)cc1S(=O)(=O)Nc1nccc(C#Cc2cnc3[nH]ncc3c2)c1F [Example 12, 5-Cyano-N-[3-fluoro-4-(2-{1H-pyrazolo[3,4-b]pyridin-5-yl}ethynyl)pyridin-2-yl]-2-methoxypyridine-3-sulfonamide]	7.76
Cc1cnc(C)c(S(=O)(=O)Nc2nccc(C#Cc3cnc4[nH]ncc4c3)c2F)c1 [Example 11, N-[3-Fluoro-4-(2-{1H-pyrazolo[3,4-b]pyridin-5-yl}ethynyl)pyridin-2-yl]-2,5-dimethylpyridine-3-sulfonamide]	8.17
COc1cccc(S(=O)(=O)Nc2nccc(C#Cc3cnc4[nH]ncc4c3)c2F)c1F [Example 1, 2-Fluoro-N-[3-fluoro-4-(2-{1H-pyrazolo[3,4-b]pyridin-5-yl}ethynyl)pyridin-2-yl]-3-methoxybenzene-1-sulfonamide]	172
O=S(=O)(Nc1nccc(C#Cc2cnc3[nH]ncc3c2)c1F)c1cccc2c1OCO2 [Example 10, N-[3-Fluoro-4-(2-{1H-pyrazolo[3,4-b]pyridin-5-yl}ethynyl)pyridin-2-yl]-2H-1,3-benzodioxole-4-sulfonamide]	209
COc1ncc(C)cc1S(=O)(=O)Nc1nccc(C#Cc2cnc3[nH]ncc3c2)c1F [Example 9, N-[3-Fluoro-4-(2-{1H-pyrazolo[3,4-b]pyridin-5-yl}ethynyl)pyridin-2-yl]-2-methoxy-5-methyl-pyridine-3-sulfonamide]	6.6

— patent publication US20250129068A1 (IP2IPO INNOVATIONS LIMITED, priority 2021, published 2025)
